Consider one compound from PMC13081163, “Discovery of a novel Nrf2 activator that modulates mitochondrial function in neurons by regulating DHRS3-Nrf2 interaction after ischemic stroke” (Theranostics, 2026).

A word on the CLint scaled: it is the capacity of the preparation to metabolise the compound, expressed as a volume cleared per time. Read a low CLint scaled as greater metabolic stability. The half-life is the time in which the quantity being followed falls by half. Lower therefore signals rapid decline. Usually AUC(0-t) stands for the area under the concentration-time curve up to a stated or last time point. Low values mean low exposure, high ones high exposure. The term Cmax denotes the highest concentration seen after dosing. As a reminder, the MRT last is a mean duration of stay, worked out from the concentration-time curve. By bioavailability is commonly meant the share of a dose that reaches the circulation, judged against a reference dose that is usually intravenous. What is called Kd is the free concentration of one partner at which half of the binding sites on the other are occupied at equilibrium, for simple one-to-one binding.

One data set has as its system SH-SY5Y cells. The data set is described as follows: Protection against OGD/R damage in SH-SY5Y cells (CCK-8). Conditions: for EC50: Homo sapiens. In kind it is cell-based, human. As for the experimental part: To mimic ischemic conditions in vitro, cells were washed with PBS and then cultured for 2.5 h at 37 °C in glucose-free medium under anaerobic conditions (5% hydrogen, 90% nitrogen, and 5% carbon dioxide). OGD process was terminated by transferring cells back to normal glucose-containing medium under normoxic conditions (5% CO₂, 37 °C) and maintained for 24 h.
In the administration group, cells were exposed for 12 h with Cpd.51 prior to OGD. OGD lasted for 2.5 h and the reperfusion lasted for 24 h before the experiment was concluded. Subsequently, cell viability was determined using the cell counting kit-8 (CCK-8, C0039, Beyotime, China). In the experiment to explore the treatment time window, the only difference was the timing of the Cpd.51 treatment, while all other procedures remained unchanged.
Hek-293T cells were transiently transfected, using Lipofectamine™ 3000 and P3000™ reagent (L3000075, Invitrogen, USA) according to the manufacturer's instructions, with the wild-type, point-mutant and double-mutations constructs of Keap1, DHRS3 or Nrf2 (each at 0.5 ng/μL), respectively. Similarly, to promote the expression of the DHRS3 gene, a DHRS3 expression plasmids (0.5 ng/μL) was transfected as well as the corresponding negative controls into SH-SY5Y cells for 6 h, and further cultured with fresh medium for 18 h according to the manufacturer's instructions.

The next data set addresses T1, Keap1-Nrf2 (Homo sapiens, UniProt Q14145).
T1 construct: endogenous in cells; host or cells: SH-SY5Y
The data set can be described thus: Co-IP of Keap1-Nrf2 binding in SH-SY5Y cells. In kind it is cell-based. To be noted: 100 nM, physiological and OGD/R conditions. As to the method:
(§1) Co-IP experiments were performed as described. After SH-SY5Y cells were treated, lysates were collected and incubated with antibodies with rotation for 12 h at 4 °C. Then, they were incubated with protein A/G magnetic beads (88804, Thermo Scientific, USA) as specification. Subsequently, the beads were collected and immune complexes were isolated. Finally, protein complexes were incubated for 5 min at 95 °C after dissolving in the electrophoresis sample buffer, and subjected to western blotting.

In a further data set the target is T2, DHRS3-Nrf2 complex (Homo sapiens, UniProt O75911).
T2 construct: endogenous in cells; host or cells: SH-SY5Y
T2 sequence (O75911 1-302): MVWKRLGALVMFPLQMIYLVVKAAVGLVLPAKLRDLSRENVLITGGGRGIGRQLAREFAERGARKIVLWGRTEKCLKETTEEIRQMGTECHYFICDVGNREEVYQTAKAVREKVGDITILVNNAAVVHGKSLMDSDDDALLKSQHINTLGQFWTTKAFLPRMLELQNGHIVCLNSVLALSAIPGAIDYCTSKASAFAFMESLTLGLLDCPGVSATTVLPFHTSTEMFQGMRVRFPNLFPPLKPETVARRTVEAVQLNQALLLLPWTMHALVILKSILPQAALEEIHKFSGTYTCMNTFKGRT
The data set is described as follows: Co-IP of Nrf2-DHRS3 interaction in SH-SY5Y cells. Conditions: 100 nM, physiological and OGD/R conditions. Type of data set: cell-based. As for the experimental part:
as §1

Data set [1] can be described thus: Microsomal metabolic stability, human. In kind it is in vitro ADME. To be noted: human liver microsomes. As for the experimental part: The liver microsomal incubation system comprised human, dog, or rat liver microsomal protein (0.75 mg/mL), nicotinamide adenine dinucleotide phosphate (NADPH) generation system, potassium phosphate buffer (0.1 M, pH 7.4), substrate, and inhibitor. The assay was conducted by first preparing a potassium phosphate buffer. Compounds and liver microsomes were then diluted and pre-incubated at 37 °C before initiating the reaction with NADPH. Aliquots were quenched with acetonitrile containing internal standard at specified time points. After sample processing (shaking and centrifugation), the supernatants were analyzed by LC-MS/MS to determine metabolic stability.
For orientation: Liver microsomes are vesicles of endoplasmic reticulum, rich in cytochrome P450 enzymes.

Data set [2] can be described thus: Pharmacokinetics in male rats (LC-MS/MS). Type of data set: in vivo. Conditions: SD, rat, plasma.
The target in data set [3] is Human recombinant Keap1 proteins (Homo sapiens, UniProt Q14145). The data set is described as follows: SPR binding to full-length Keap1. Further details: purchased Sinobiological ME18DE0203. To be noted: read-out: KD, full-length Keap1 protein. As to the method:
The binding affinity of Cpd.51 or Oma to Keap1 proteins were measured using a Biacore T200. The overall experimental procedures were based on previous reports, [28]. Human recombinant Keap1 proteins or truncated form of Keap1 (residues 48-180 and residues 48-149) were captured on a CM5 chip by a standard amine coupling procedure. Binding sensorgrams were recorded by injecting various concentrations of Cpd.51 over the immobilized proteins surface. The dissociation constant was obtained by globally fitting the data (to the 1:1 Langmuir binding model using the Biacore Insight evaluation software (Cytiva, Marlborough, MA, USA). Affinity tests for Cpd.51 and DHRS3 were also performed using the aforementioned method.
For orientation: In SPR one partner is held on a chip, and binding of the other changes the refractive index at the surface.

In another data set the target is T3, DHRS3-Nrf2 interaction (Homo sapiens, UniProt O75911).
T3 construct: purchased Ybio YB710012 (GST-Nrf2); YB765100 (DHRS3)
T3 sequence (O75911 1-302): T2 sequence (O75911 1-302)
The data set can be described thus: GST pull-down of Nrf2 and DHRS3. Type of data set: binding. Conditions: 100 nM, purified GST-tagged Nrf2 and DHRS3 proteins. As to the method: GST-Nrf2 (YB710012, Ybio, China) or GST (Ag0040, Proteintech, China, as control) proteins were mixed with GST Resin (EA-IP-K008, Elabscience Biotechnology, China) for 2 h incubation on the shaker at 4 °C. Subsequently, both Cpd.51 (100 nM) and DHRS3 (YB765100, Ybio, China) were added to the mixture and rotated overnight at 4 °C [40]. Then, following the instructions, the sample buffer was added and heated to 100 °C for 10 min. After completing all steps, the mixture was centrifuged, and the supernatant was collected for western blotting analysis.

Like-named read-outs stand apart in the source and are kept apart here.

T1 sequence (Q14145 whole entry): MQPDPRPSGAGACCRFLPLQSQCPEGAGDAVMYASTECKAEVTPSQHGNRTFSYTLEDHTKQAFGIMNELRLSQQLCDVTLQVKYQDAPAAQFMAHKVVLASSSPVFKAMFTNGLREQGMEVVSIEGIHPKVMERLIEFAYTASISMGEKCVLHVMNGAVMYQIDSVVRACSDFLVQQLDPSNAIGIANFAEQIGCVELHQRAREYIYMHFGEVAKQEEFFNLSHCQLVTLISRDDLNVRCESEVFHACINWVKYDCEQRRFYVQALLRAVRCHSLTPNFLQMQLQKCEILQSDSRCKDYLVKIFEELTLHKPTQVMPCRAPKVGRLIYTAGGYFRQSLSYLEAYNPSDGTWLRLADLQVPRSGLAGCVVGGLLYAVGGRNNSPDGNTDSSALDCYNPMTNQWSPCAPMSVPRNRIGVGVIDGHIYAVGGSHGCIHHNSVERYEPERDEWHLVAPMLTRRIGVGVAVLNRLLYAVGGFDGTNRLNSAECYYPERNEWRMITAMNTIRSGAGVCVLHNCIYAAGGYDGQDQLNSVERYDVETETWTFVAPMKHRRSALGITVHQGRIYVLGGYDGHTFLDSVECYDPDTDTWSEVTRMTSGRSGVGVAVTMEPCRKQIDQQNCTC
Sequence of Human recombinant Keap1 proteins (Q14145 whole entry, the tested form may be a part): as the sequence (Q14145 whole entry) above

Turning to `CC1(C)CCC2(C(=O)NO)CCC3(C)C(C(=O)C=C4C5(C)C=C(C#N)C(=O)C(C)(C)C5CCC43C)C2C1` (centres unmarked) [Cpd.51], the “OGD/R damage when administered at different time points” value in the data set on SH-SY5Y cells (100 nM, CCK-8) is on record as “consistently alleviated OGD/R damage”. The EC50 in the data set on SH-SY5Y cells (SH-SY5Y, DHRS3-OE (DHRS3 overexpression plasmid), read-out: EC50 of cytoprotection against OGD/R) was 183 nM; in the data set on SH-SY5Y cells (SH-SY5Y, NC-OE, read-out: EC50 of cytoprotection against OGD/R), 53 nM; with SH-SY5Y cells (read-out: EC50 against OGD/R damage), 19.7 nM. Further, the “amount of Nrf2 bound to Keap1 (Co-IP)” value at Keap1-Nrf2 was “reduced the amount of Nrf2 bound to Keap1”. The “DHRS3-Nrf2 complex formation (Co-IP)” value at DHRS3-Nrf2 complex is “substantially reduced DHRS3-Nrf2 complex formation”. Moreover, the “Remainig (%, t = 60 min)” value in data set [1] was 28.9%. This compound displayed a CLint scaled in data set [1] (human, pH 7.4) of 34 mL/min/kg. The half-life in data set [1] (human, pH 7.4) was 0.612 h; in data set [2] (30 mg/kg, i.g. (oral)), 6.36 h; in data set [2] (iv, 5 mg/kg), 1.49 ± 0.31 h. This compound also gave an AUC(0-t) in data set [2] (po, 30 mg/kg, i.g.) of 685 ± 111 ng·h/mL. The Cmax in data set [2] (po, 30 mg/kg, i.g.) came to 124 ± 37 ng/mL. Further, the MRT last in data set [2] (po, 30 mg/kg, i.g.) came to 5.17 ± 0.72 h. In data set [2] (po, 30 mg/kg, i.g., read-out: F (oral bioavailability)), the bioavailability came to 11.5%. Also, the Kd in data set [3] stood at 53900 nM. Besides, on DHRS3-Nrf2 interaction, the “direct DHRS3-Nrf2 binding (GST pull-down)” value is given as “significantly reduced”.
